Assay [1] deals with Leu16 CAR-T cells. The experiment in a line: Antigen-independent activation and exhaustion marker expression by flow cytometry, Leu16 CAR-T cells. It is filed as cell-based, human. As to conditions: equivalent concentrations as for rituximab CAR-T cells. From the text: FIG. 3A-G. Pharmacological modulation of Leu16 CAR-T cells modestly dampens tonic signaling while enhancing anti-tumor efficacy. (A) Pictorial representation of the correlation between tonic signaling-modulated rituximab CAR-T cells and in vivo anti-tumor efficacy. (B) Pictorial representation of pharmacological modulation strategy aimed to either increase or decrease Leu16 CAR tonic signaling; c-MYC (MYCi975) and SREBP (betulin) inhibition increased tonic signaling whereas mTORC1 (rapamycin) inhibition decreased tonic signaling in rituximab CAR-T cells. (C) % distribution of T-cell subtypes in CAR^+ T cells after 6 days of pharmacological modulation (left) and Tn/scm enrichment (right). […] (F) Tumor signal (in photons/sec/cm2/sr) in individual animals as quantified by bioluminescence imaging. […]
Antibody staining for flow-cytometry analysis. EGFRt expression was measured with biotinylated cetuximab (Eli Lilly; biotinylated in-house), followed by PE-conjugated streptavidin (Jackson ImmunoResearch #016-110-084). CAR expression was quantified by surface epitope staining using anti-Fc (Alexa Fluor 488, Jackson ImmunoResearch #709-546-098). […] T-cell subtype of CAR-T cells was evaluated by antibody staining for CD45RO (VioBlue®, clone REA611, Miltenyi #130-119-620) and CD62L (APC, clone DREG56, Invitrogen #17-0629-42) after 5-6 days of inhibitor culture (FIG. 1, FIG. 3). […]

In assay [2] the test system is Raji target cells. The experiment in a line: 24-hr lysis assay of inhibitor-treated Leu16 CAR-T cells against Raji. It is filed as cell-based. As to conditions: three E:T ratios, vs vehicle-treated. The text has this:
FIG. 4A-C. Characterization of pharmacologically treated Leu16 CAR-T cells in vitro. (A) TNF-α production CAR+ T cells in the absence of antigen stimulation as quantified by intracellular flow cytometry. Data bars indicate the means of technical triplicates ±1 S.D. ns not statistically significant. (B) Leu16 CAR-T cell fold expansion after 6 days of inhibitor culture was tracked. The bars in FIGS. 4A and 4B, represent data from, EGFRt, Leu16-28z (vehicle), Leu16-28z (MYCi975), Leu16-28z (Betulin), and Leu16-28z (Rapamycin), respectively, from left to right. (C) A 24-hr lysis assay of CAR-T cells against Raji target cells at three effector-to-target (E:T) ratios. Data bars indicate the means of technical triplicates±1 S.D. Percent lysis was normalized to cell counts in target-only wells.
Cytotoxicity assay with Raji cells. Raji cells were seeded at 2×10^5 cells/well in 96-well U-bottom plate and coincubated with CAR^+ T cells at 1:1, 3.33:1, and 10:1 E:T ratios. Untransduced T cells were added to wells as needed to normalize for differing transduction efficiencies and ensure the total number of T cells per well was consistent throughout. Remaining target cells were quantified by MACSQuant VYB flow cytometer 24-hr post co-incubation.

“Also recorded” adds a separate entry of the source.

Take `C=C(C)[C@@H]1CC[C@]2(CO)CC[C@]3(C)[C@H](CC[C@@H]4[C@@]5(C)CC[C@H](O)C(C)(C)[C@@H]5CC[C@]43C)[C@@H]12` [betulin, Betulin]: the tonic signaling entry in assay [1] was “dampened; also recorded: significant decrease”. Also, in assay [2], the “lysis of Raji tumor cells” value is given as “clustered together”.
The corresponding values for MYCi975 are “dampened” and “clustered together”.

(Values after patent US20250345426A1, “METHODS FOR MAKING AND USING THERAPEUTIC CELLS” (THE REGENTS OF THE UNIVERSITY OF CALIFORNIA, priority 2022, published 2025).)
